Key:
HBEGF locus = type: cell-based, human; conditions: dCasX491-KRAB lentiviral library, spacer 34.28, HEK293T, 2 ng/ml diphtheria toxin 48 hours
B2M promoter = assay: B2M repression with gRNAs tiled across the B2M promoter, dXR1 vs ELXR #1 (Example 10); type: cell-based, human; conditions: HEK293T, six days after lipofection, unlike the effects seen with dXR1
Protocol: ELXR #1 containing the ZIM3-KRAB domain, as described in Example 6, and dXR1, as described in Example 1, were assessed in this experiment. Various gRNAs with scaffold 174 containing a B2M-targeting spacer were used in this experiment.
The next day, cells were selected with puromycin for four additional days. […] HEK293T cells transfected with either ELXR #1 or dXR1 with a non-targeting gRNA was included as an experimental control. FIG. 21A is a schematic illustrating the tiling of the various B2M-targeting gRNAs (spacers listed in Table 31) within a ˜1 KB window of the B2M promoter.

## Zim3: ZIM3 KRAB domain, SEQ ID NO: 337 [reference compound]
HBEGF locus
  log2 (fold change) in abundance of the KRAB domain before and after selection: 1.7787

## spacer 7.165: B2M-targeting, ELXR-specific spacer, UCCCUAUGUCCUUGCUGUUU, SEQ ID NO: 59667 (listed as RNA, chemistry not fully specified)
B2M promoter
  B2M repression (HLA-negative cells) mediated by ELXR #1 with the spacer: meaningful B2M repression
